In brackets after ≈: the same amount, converted by molar mass. Read-outs that look alike come from different tables or passages of the source.
Tests used:
Assay type in all cases: cell-based
E. feacalis = assay: Minimum inhibitory concentration (MIC) in vitro, agar dilution method
Text: (§1) Hydrates Samples: • The 1/2 hydrates prepared according to Example 2; • Content (purity % wt): 99.0%; • The 1/12 hydrates prepared according to Example 253; • Content (purity % wt): 98.9%; • The 2/7 hydrates prepared according to Example 106; • Content (purity % wt): 98.8%; • The 2/5 hydrates prepared according to Example 162; • Content (purity % wt): 99.0%; • The 3/4 hydrates prepared according to Example 337; • Content (purity % wt): 98.8%; • Preparation: dissolved in DMSO, and further diluted with sterile distilled water to desired concentration. • The hydrates samples were supplied by Sichuan Beilike Biotechnology LTD.
(§2) Anhydrous Sample: • The anhydrous compounds prepared according to Example 1. • Content (purity % wt): 98.6%; • Preparation: dissolved in DMSO, and further diluted with sterile distilled water to desired concentration; • The anhydrous sample was supplied by Sichuan Beilike Biotechnology LTD.
(§3) Control Samples • Vancomycin: provided by Sichuan Beilike Biotechnology LTD, purchased from Eli Lilly Japan K.K. • Lot No.: WM16151 (production date: Apr. 10, 2007, expiration date: Apr. 9, 2009). • Specification: 500 mg/bottle; solubility (physicochemical properties): soluble in water. • Linezolid (LZ): provided by Sichuan Beilike Biotechnology LTD.
(§4) Bacteria Strains • Clinically isolated strains: clinically isolated bacterial pathogens collected in Sichuan and Beijing areas from March 2007 to May 2008. • Species include: Staphylococcus aureus MRSA, Staphylococcus aureus MSSA, S. epidermidis MRSE, S. epidermidis MSSE, E. feacalis, and E. feacium, a total of 51 strains. • Quality control strains: Staphylococcus aureus […] strain kept in Sichuan Industrial Institute of Antibiotics, purchased from the medical testing center of the Ministry of Health, China.
(§5) Experimental Method: • Measurement of the minimum inhibitory concentration (MIC) in vitro: • The minimum inhibitory concentration (MIC) of each test sample against test strains was measured by using the agar dilution method recommended by the U.S. National Committee for Clinical Laboratory Standards (CLSI/NCCIs).
(§6) Based on the CLSI/NCCL's testing standard with respect to vancomycin and linezolid (see Table 6), the minimum inhibitory concentration (MIC) values of every strain were reported, and the MIC50 (the concentration that inhibits 50% of the different strains of bacteria), MIC90 (the concentration that inhibits 90% of the different strains of bacteria), and MICrange (the range of the MIC value of the tested strains) were observed.

E. feacium = assay: as above
Text: as §1, §2, §3, §4, §5, §6

S. epidermidis MRSE = assay: as above; details: for MIC: read-out: MIC
Text: as §1, §2, §3, §4, §5, §6

S. epidermidis MSSE = assay: as above; details: for MIC: read-out: MIC
Text: as §1, §2, §3, §4, §5, §6

[1] = test system: Staphylococcus aureus MRSA; assay: as above; details: for MIC: read-out: MIC
Text: as §1, §2, §3, §4, §5, §6

[2] = test system: Staphylococcus aureus MSSA; assay: as above; details: for MIC: read-out: MIC
Text: as §1, §2, §3, §4, §5, §6

Staphylococcus aureus = assay: Minimum inhibitory concentration (MIC) in vitro, agar dilution method, quality control strain; details: Staphylococcus aureus, ATCC27853, strain S. AT C C25923 (Table 7 No. 1); read-out: MIC
Text: as §1, §2, §3, §4, §5, §6

CC(=O)NC[C@H]1CN(c2ccc(N3CCOCC3)c(F)c2)C(=O)O1 [Linezolid, reference compound]
MIC50 (E. feacalis): 1 µg/mL (≈ 2.96 µM)
MIC90 (E. feacalis): 2 µg/mL (≈ 5.93 µM)
MICrange (E. feacalis; E. feacalis (5 strains), clinically isolated): 1 to 2 µg/mL
MIC (E. feacalis; strain Efa 54 (Table 8 No. 20)): 1 µg/mL (≈ 2.96 µM)
MIC (E. feacalis; strain Efa 116 (Table 8 No. 16)): 1 µg/mL (≈ 2.96 µM)
MIC (E. feacalis; strain Efa 907 (Table 8 No. 19)): 1 µg/mL (≈ 2.96 µM)
MIC (E. feacalis; strain Efa 3006 (Table 8 No. 18)): 1 µg/mL (≈ 2.96 µM)
MIC (E. feacalis; strain Efa 33748 (Table 8 No. 17)): 2 µg/mL (≈ 5.93 µM)
MIC50 (E. feacium): 2 µg/mL (≈ 5.93 µM)
MIC90 (E. feacium): 4 µg/mL (≈ 11.9 µM)
MICrange (E. feacium; E. feacium (5 strains), clinically isolated): 1 to 4 µg/mL
MIC (E. feacium; strain Efm 98 (Table 8 No. 21)): 1 µg/mL (≈ 2.96 µM)
MIC (E. feacium; strain Efm 171 (Table 8 No. 25)): 2 µg/mL (≈ 5.93 µM)
MIC (E. feacium; strain Efm 197 (Table 8 No. 22)): 2 µg/mL (≈ 5.93 µM)
MIC (E. feacium; strain Efm N3 (Table 8 No. 23)): 1 µg/mL (≈ 2.96 µM)
MIC (E. feacium; strain Efm N4 (Table 8 No. 24)): 4 µg/mL (≈ 11.9 µM)
MICrange (S. epidermidis MRSE; S. ep MRSE (10 strains), clinically isolated): 0.5 to 2 µg/mL
MIC50 (S. epidermidis MRSE; Staphylococcus epidermidis, MRSE, S. ep MRSE (10 strains), clinically isolated, read-out: MIC50): 1 µg/mL (≈ 2.96 µM)
MIC90 (S. epidermidis MRSE; Staphylococcus epidermidis, MRSE, S. ep MRSE (10 strains), clinically isolated, read-out: MIC90): 2 µg/mL (≈ 5.93 µM)
MIC (S. epidermidis MRSE; Staphylococcus epidermidis, MRSE, strain S. ep MRSE4 (Table 8 No. 9)): 1 µg/mL (≈ 2.96 µM)
MIC (S. epidermidis MRSE; Staphylococcus epidermidis, MRSE, strain S. ep MRSE20 (Table 8 No. 6)): 1 µg/mL (≈ 2.96 µM)
MIC (S. epidermidis MRSE; Staphylococcus epidermidis, MRSE, strain S. ep MRSE87 (Table 8 No. 13)): 2 µg/mL (≈ 5.93 µM)
MIC (S. epidermidis MRSE; Staphylococcus epidermidis, MRSE, strain S. ep MRSE90 (Table 8 No. 10)): 2 µg/mL (≈ 5.93 µM)
MIC (S. epidermidis MRSE; Staphylococcus epidermidis, MRSE, strain S. ep MRSE101 (Table 8 No. 7)): 0.5 µg/mL (≈ 1.48 µM)
MIC (S. epidermidis MRSE; Staphylococcus epidermidis, MRSE, strain S. ep MRSE105 (Table 8 No. 11)): 1 µg/mL (≈ 2.96 µM)
MIC (S. epidermidis MRSE; Staphylococcus epidermidis, MRSE, strain S. ep MRSE140 (Table 8 No. 14)): 1 µg/mL (≈ 2.96 µM)
MIC (S. epidermidis MRSE; Staphylococcus epidermidis, MRSE, strain S. ep MRSE142 (Table 8 No. 12)): 1 µg/mL (≈ 2.96 µM)
MIC (S. epidermidis MRSE; Staphylococcus epidermidis, MRSE, strain S. ep MRSE210 (Table 8 No. 15)): 1 µg/mL (≈ 2.96 µM)
MIC (S. epidermidis MRSE; Staphylococcus epidermidis, MRSE, strain S. ep MRSE211 (Table 8 No. 8)): 1 µg/mL (≈ 2.96 µM)
MICrange (S. epidermidis MSSE; S. ep MSSE (10 strains), clinically isolated): 0.5 to 2 µg/mL
MIC50 (S. epidermidis MSSE; Staphylococcus epidermidis, S. ep MSSE (10 strains), clinically isolated, read-out: MIC50): 1 µg/mL (≈ 2.96 µM)
MIC90 (S. epidermidis MSSE; Staphylococcus epidermidis, S. ep MSSE (10 strains), clinically isolated, read-out: MIC90): 2 µg/mL (≈ 5.93 µM)
MIC (S. epidermidis MSSE; Staphylococcus epidermidis, strain S. ep MSSE87 (Table 7 No. 23)): 0.5 µg/mL (≈ 1.48 µM)
MIC (S. epidermidis MSSE; Staphylococcus epidermidis, strain S. ep MSSE88 (Table 8 No. 5)): 2 µg/mL (≈ 5.93 µM)
MIC (S. epidermidis MSSE; Staphylococcus epidermidis, strain S. ep MSSE113 (Table 7 No. 24)): 1 µg/mL (≈ 2.96 µM)
MIC (S. epidermidis MSSE; Staphylococcus epidermidis, strain S. ep MSSE116 (Table 7 No. 25)): 0.5 µg/mL (≈ 1.48 µM)
MIC (S. epidermidis MSSE; Staphylococcus epidermidis, strain S. ep MSSE118 (Table 8 No. 2)): 2 µg/mL (≈ 5.93 µM)
MIC (S. epidermidis MSSE; Staphylococcus epidermidis, strain S. ep MSSE119 (Table 7 No. 27)): 1 µg/mL (≈ 2.96 µM)
MIC (S. epidermidis MSSE; Staphylococcus epidermidis, strain S. ep MSSE137 (Table 8 No. 4)): 2 µg/mL (≈ 5.93 µM)
MIC (S. epidermidis MSSE; Staphylococcus epidermidis, strain S. ep MSSE140 (Table 8 No. 3)): 2 µg/mL (≈ 5.93 µM)
MIC (S. epidermidis MSSE; Staphylococcus epidermidis, strain S. ep MSSE142 (Table 7 No. 26)): 1 µg/mL (≈ 2.96 µM)
MIC (S. epidermidis MSSE; Staphylococcus epidermidis, strain S. ep MSSE153 (Table 8 No. 1)): 1 µg/mL (≈ 2.96 µM)
MICrange ([1]; S. MRSA (10 strains), clinically isolated): 1 to 2 µg/mL
MIC50 ([1]; Staphylococcus aureus, MRSA, S. MRSA (10 strains), clinically isolated, read-out: MIC50): 2 µg/mL (≈ 5.93 µM)
MIC90 ([1]; Staphylococcus aureus, MRSA, S. MRSA (10 strains), clinically isolated, read-out: MIC90): 2 µg/mL (≈ 5.93 µM)
MIC ([1]; Staphylococcus aureus, MRSA, strain S. MRSA 29 (Table 7 No. 15)): 1 µg/mL (≈ 2.96 µM)
MIC ([1]; Staphylococcus aureus, MRSA, strain S. MRSA 101 (Table 7 No. 14)): 1 µg/mL (≈ 2.96 µM)
MIC ([1]; Staphylococcus aureus, MRSA, strain S. MRSA 201 (Table 7 No. 13)): 2 µg/mL (≈ 5.93 µM)
MIC ([1]; Staphylococcus aureus, MRSA, strain S. MRSA B27 (Table 7 No. 21)): 2 µg/mL (≈ 5.93 µM)
MIC ([1]; Staphylococcus aureus, MRSA, strain S. MRSA B105 (Table 7 No. 17)): 2 µg/mL (≈ 5.93 µM)
MIC ([1]; Staphylococcus aureus, MRSA, strain S. MRSA B143 (Table 7 No. 19)): 1 µg/mL (≈ 2.96 µM)
MIC ([1]; Staphylococcus aureus, MRSA, strain S. MRSA B151 (Table 7 No. 20)): 2 µg/mL (≈ 5.93 µM)
MIC ([1]; Staphylococcus aureus, MRSA, strain S. MRSA B164 (Table 7 No. 16)): 2 µg/mL (≈ 5.93 µM)
MIC ([1]; Staphylococcus aureus, MRSA, strain S. MRSA B199 (Table 7 No. 22)): 2 µg/mL (≈ 5.93 µM)
MIC ([1]; Staphylococcus aureus, MRSA, strain S. MRSA B617 (Table 7 No. 18)): 1 µg/mL (≈ 2.96 µM)
MICrange ([2]; S. MSSA (11 strains), clinically isolated): 1 to 2 µg/mL
MIC50 ([2]; Staphylococcus aureus, MSSA, S. MSSA (11 strains), clinically isolated, read-out: MIC50): 2 µg/mL (≈ 5.93 µM)
MIC90 ([2]; Staphylococcus aureus, MSSA, S. MSSA (11 strains), clinically isolated, read-out: MIC90): 2 µg/mL (≈ 5.93 µM)
MIC ([2]; Staphylococcus aureus, MSSA, strain S. MSSA 123 (Table 7 No. 3)): 2 µg/mL (≈ 5.93 µM)
MIC ([2]; Staphylococcus aureus, MSSA, strain S. MSSA 187 (Table 7 No. 7)): 2 µg/mL (≈ 5.93 µM)
MIC ([2]; Staphylococcus aureus, MSSA, strain S. MSSA 195 (Table 7 No. 6)): 2 µg/mL (≈ 5.93 µM)
MIC ([2]; Staphylococcus aureus, MSSA, strain S. MSSA 195 (Table 7 No. 12)): 2 µg/mL (≈ 5.93 µM)
MIC ([2]; Staphylococcus aureus, MSSA, strain S. MSSA 201 (Table 7 No. 11)): 2 µg/mL (≈ 5.93 µM)
MIC ([2]; Staphylococcus aureus, MSSA, strain S. MSSA 232 (Table 7 No. 2)): 2 µg/mL (≈ 5.93 µM)
MIC ([2]; Staphylococcus aureus, MSSA, strain S. MSSA 275 (Table 7 No. 10)): 2 µg/mL (≈ 5.93 µM)
MIC ([2]; Staphylococcus aureus, MSSA, strain S. MSSA 466 (Table 7 No. 8)): 1 µg/mL (≈ 2.96 µM)
MIC ([2]; Staphylococcus aureus, MSSA, strain S. MSSA 519 (Table 7 No. 9)): 2 µg/mL (≈ 5.93 µM)
MIC ([2]; Staphylococcus aureus, MSSA, strain S. MSSA 520 (Table 7 No. 4)): 2 µg/mL (≈ 5.93 µM)
MIC ([2]; Staphylococcus aureus, MSSA, strain S. MSSA 580 (Table 7 No. 5)): 2 µg/mL (≈ 5.93 µM)
MIC (Staphylococcus aureus): 2 µg/mL (≈ 5.93 µM)
